The results in this text go back to patent EP1073435B1, “SUBSTITUTED TRICYCLIC PYRAZOLE DERIVATIVES WITH PROTEIN KINASE ACTIVITY” (Abbott GmbH & Co. KG, priority 1998, dated 1999).

By pIC50 is commonly meant −log10 of the IC50, conventionally taken in molar units. Read a low pIC50 as a large IC50.

pIC50: −log10 of the molar value.

Common to all, as to assay type: biochemical
One assay concerns the target T1, KDR tyrosine kinase (Homo sapiens, UniProt P35968).
T1 construct: poly-His6 (N); made in house; host or cells: SF-9 insect cells (baculovirus, pVL1393)
In words: KDR in vitro ELISA. Particulars: ELISA assay, ATP 5µM. The text has this:
The coding sequence for the KDR intra-cellular domain (aa789-1354) was generated through PCR using cDNAs isolated from HUVEC cells. A poly-His6 sequence was introduced at the N-terminus of this protein as well. This fragment was cloned into transfection vector pVL1393 at the Xba 1 and Not 1 site. Recombinant baculovirus (BV) was generated through co-transfection using the BaculoGold Transfection reagent (PharMingen). Recombinant BV was plaque purified and verified through Western analysis. For protein production, SF-9 cells were grown in SF-900-II medium at 2 x 10^6/ml, and were infected at 0.5 plaque forming units per cell (MOI). Cells were harvested at 48 hours post infection.
SF-9 cells expressing (His)6KDR(aa789-1354) were lysed by adding 50 ml of Triton X-100 lysis buffer (20 mM Tris, pH 8.0, 137 mM NaCl, 10% glycerol, 1% Triton X-100, 1mM PMSF, 10µg/ml aprotinin, 1 µg/ml leupeptin) to the cell pellet from 1L of cell culture. The lysate was centrifuged at 19,000 rpm in a Sorval SS-34 rotor for 30 min at 4°C. The cell lysate was applied to a 5 ml NiCl2 chelating sepharose column, equilibrated with 50 mM HEPES, pH7.5, 0.3 M NaCl. KDR was eluted using the same buffer containing 0.25 M imidazole. Column fractions were analyzed using SDS-PAGE and an ELISA assay (below) which measures kinase activity. […]

The target in another assay is T2, human Tie-2 (Homo sapiens, UniProt Q02763).
T2 construct: human Tie-2 intra-cellular domain (aa775-1124) was generated through PCR; made in house; host or cells: SF-9 insect cells (baculovirus)
In words: ELISA tyrosine kinase assay, TIE2. The source says: The coding sequence for the human Tie-2 intra-cellular domain (aa775-1124) was generated through PCR using cDNAs isolated from human placenta as a template. A poly-His6 sequence was introduced at the N-terminus and this construct was cloned into transfection vector […] at the Xba 1 and Not 1 site. Recombinant BV was generated through co-transfection using the BaculoGold Transfection reagent (PharMingen). Recombinant BV was plaque purified and verified through Western analysis. For protein production, SF-9 insect cells were grown in SF-900-II medium at 2 x 10^6/ml, and were infected at MOI of 0.5. Purification of the His-tagged kinase used in screening was analogous to that described for KDR.
The disclosed protocol can be adapted for determining activity with respect to a specific RTK. For example, preferred protocols for conducting the ELISA experiments for KDR is provided below. Adaptation of these protocols for determining a compounds activity for other members of the RTK family, as well as non-receptor tyrosine kinases, are well within the abilities of those in the art.
• 1. Plate Preparation: Dilute PGT stock (50mg/ml, frozen) in PBS to a 250µg/ml. Add 125µl per well of Coming modified flat bottom high affinity ELISA plates (Corning #25805-96). Add 125µl PBS to blank wells. Cover with sealing tape and incubate overnight 37°C. […] Shake on plate reader. • Read OD immediately at 450nm

For a further assay, the target named is T3, zapfl (Homo sapiens, UniProt P43403).
T3 construct: the region encoding the entirety of ZAP70 (amino acids 1-619); made in house; host or cells: SF-9 insect cells (baculovirus, pVL1393)
T3 sequence (P43403 1-619): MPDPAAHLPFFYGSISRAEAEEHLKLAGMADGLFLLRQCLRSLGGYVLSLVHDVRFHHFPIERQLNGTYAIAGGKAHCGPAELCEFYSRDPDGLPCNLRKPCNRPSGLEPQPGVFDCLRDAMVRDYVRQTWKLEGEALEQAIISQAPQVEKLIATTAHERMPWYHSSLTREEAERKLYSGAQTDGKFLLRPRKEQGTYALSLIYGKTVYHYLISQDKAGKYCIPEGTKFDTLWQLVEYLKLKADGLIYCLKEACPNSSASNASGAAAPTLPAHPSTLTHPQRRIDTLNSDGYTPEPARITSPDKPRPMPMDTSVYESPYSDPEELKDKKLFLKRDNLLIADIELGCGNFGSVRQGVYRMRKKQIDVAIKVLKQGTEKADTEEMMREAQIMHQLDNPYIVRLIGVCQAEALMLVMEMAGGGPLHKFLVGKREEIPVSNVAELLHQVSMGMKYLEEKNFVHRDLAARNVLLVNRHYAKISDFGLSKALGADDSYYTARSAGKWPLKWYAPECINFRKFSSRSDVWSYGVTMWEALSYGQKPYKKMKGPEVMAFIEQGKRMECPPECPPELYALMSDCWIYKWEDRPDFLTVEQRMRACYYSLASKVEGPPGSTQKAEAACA
In words: ELISA tyrosine kinase assay, zapfl (ZAP70). The source says: The baculoviral expression vector used was pVL1393. (Pharmingen, Los Angeles, Ca.) The nucleotide sequence encoding amino acids M(H)6 LVPR9S was placed 5' to the region encoding the entirety of ZAP70 (amino acids 1-619). The nucleotide sequence encoding the ZAP70 coding region was generated through PCR using cDNA libraries isolated from Jurkat immortalized T-cells. The histidine residues enabled affinity purification of the protein (vide infra). The LVPR9S bridge constitutes a recognition sequence for proteolytic cleavage by thrombin, enabling removal of the affinity tag from the enzyme. SF-9 insect cells were infected at a multiplicity of infection of 0.5 and harvested 48 hours post infection.
SF-9 cells were lysed in a buffer consisting of 20 mM Tris, pH 8.0, 137 mM NaCl, 10% glycerol, 1% Triton X-100, 1 mM PMSF, 1 µg/ml leupeptin, 10 µg/ml aprotinin and I mM sodium orthovanadate. The soluble lysate was applied to a chelating sepharose HiTrap column (Pharmacia) equilibrated in 50 mM HEPES, pH 7.5, 0.3 M NaCl. Fusion protein was eluted with 250 mM imidazole. The enzyme was stored in buffer containing 50 mM HEPES, pH 7.5, 50 mM NaCl and 5 mM DTT.
The disclosed protocol can be adapted for determining activity with respect to a specific RTK. […]
• 1. […] Shake on plate reader. • Read OD immediately at 450nm

For a further assay, the target named is Lck (Homo sapiens, UniProt P06239). In words: ELISA tyrosine kinase assay, Lck. As to the method: Lck or truncated forms of Lck may be commercially obtained ( e.g. from Upstate Biotechnology Inc. (Saranac Lake, N.Y) and Santa Cruz Biotechnology Inc. (Santa Cruz, Ca.)) or purified from known natural or recombinant sources using conventional methods.
• 1. Plate Preparation: Dilute PGT stock (50mg/ml, frozen) in PBS to a 250µg/ml. Add 125µl per well of Coming modified flat bottom high affinity ELISA plates (Corning #25805-96). Add 125µl PBS to blank wells. Cover with sealing tape and incubate overnight 37°C. Wash 1x with 250µl washing buffer and dry for about 2hrs in 37°C dry incubator. Store coated plates in sealed bag at 4°C until used. • 2. Tyrosine Kinase Reaction: • Prepare inhibitor solutions at a 4x concentration in 20% DMSO in water. • Prepare reaction buffer • Prepare enzyme solution so that desired units are in 50µl, e.g. for KDR make to 1 ng/µl for a total of 50ng per well in the reactions. Store on ice. • Make 4x ATP solution to 20µM from 100mM stock in water. Store on ice • Add 50µl of the enzyme solution per well • Add 25µl 4x inhibitor • Add 25µl 4x ATP for inhibitor assay • Incubate for 10 minutes at room temperature • Stop reaction by adding 50µl 0.05N HCl per well • Wash plate **Final Concentrations for Reaction: • ATP: 5µM • 5% DMSO • 3. […] Shake on plate reader. • Read OD immediately at 450nm […]
A general note: ELISA stands for enzyme-linked immunosorbent assay.

Sequence of Lck (P06239 whole entry, species assumed, the tested form may be a part): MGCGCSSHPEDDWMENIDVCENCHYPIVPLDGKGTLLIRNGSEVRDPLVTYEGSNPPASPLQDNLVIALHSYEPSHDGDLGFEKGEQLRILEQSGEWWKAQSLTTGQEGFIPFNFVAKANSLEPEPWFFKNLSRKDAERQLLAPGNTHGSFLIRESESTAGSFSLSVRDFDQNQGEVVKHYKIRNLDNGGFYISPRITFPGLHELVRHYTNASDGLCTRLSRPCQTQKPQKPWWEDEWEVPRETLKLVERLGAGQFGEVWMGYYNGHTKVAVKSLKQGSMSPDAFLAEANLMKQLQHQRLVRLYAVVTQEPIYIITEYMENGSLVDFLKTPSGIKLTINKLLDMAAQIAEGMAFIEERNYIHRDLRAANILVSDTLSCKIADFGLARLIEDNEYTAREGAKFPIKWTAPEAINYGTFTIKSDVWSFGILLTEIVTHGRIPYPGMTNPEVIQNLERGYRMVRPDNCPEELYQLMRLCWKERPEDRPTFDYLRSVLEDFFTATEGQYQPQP
T1 sequence (P35968 789-1354): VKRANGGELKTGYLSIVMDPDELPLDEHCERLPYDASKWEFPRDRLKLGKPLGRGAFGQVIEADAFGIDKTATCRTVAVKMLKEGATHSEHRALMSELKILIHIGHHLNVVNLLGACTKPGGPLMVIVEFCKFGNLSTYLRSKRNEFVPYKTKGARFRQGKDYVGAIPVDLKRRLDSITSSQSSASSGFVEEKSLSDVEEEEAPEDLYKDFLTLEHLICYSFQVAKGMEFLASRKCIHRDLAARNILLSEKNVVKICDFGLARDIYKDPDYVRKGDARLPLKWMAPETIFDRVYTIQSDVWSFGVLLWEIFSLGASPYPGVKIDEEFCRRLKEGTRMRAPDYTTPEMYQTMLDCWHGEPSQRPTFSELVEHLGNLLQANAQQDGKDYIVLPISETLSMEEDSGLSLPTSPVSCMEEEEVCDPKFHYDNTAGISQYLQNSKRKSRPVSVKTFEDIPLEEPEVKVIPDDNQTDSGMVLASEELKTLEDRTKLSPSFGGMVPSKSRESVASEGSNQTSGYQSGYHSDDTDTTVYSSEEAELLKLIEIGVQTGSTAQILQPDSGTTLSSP
T2 sequence (Q02763 775-1124): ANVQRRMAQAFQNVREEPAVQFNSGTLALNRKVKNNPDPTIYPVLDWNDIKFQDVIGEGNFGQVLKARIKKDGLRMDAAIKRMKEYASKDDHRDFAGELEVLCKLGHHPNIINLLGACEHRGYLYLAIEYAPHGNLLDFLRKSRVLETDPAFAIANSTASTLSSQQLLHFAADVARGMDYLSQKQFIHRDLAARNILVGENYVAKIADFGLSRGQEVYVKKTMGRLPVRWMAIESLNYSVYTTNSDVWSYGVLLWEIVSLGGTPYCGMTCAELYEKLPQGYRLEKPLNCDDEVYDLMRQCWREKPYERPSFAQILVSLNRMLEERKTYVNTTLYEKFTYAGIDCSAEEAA

As for `c1ccc2c(c1)SCc1c(-c3ccncc3)n[nH]c1-2` [Compound III], the negative-log IC50 (pIC50) is 4.87 against KDR tyrosine kinase, less than 4.52 on human Tie-2, 4.52 on zapfl and less than 4.52 on Lck.
